Assay results as given in patent US7625948B2, “Ester compound and medicinal use thereof” (Japan Tobacco Inc., priority 2002, dated 2009).

What was measured:
Syrian hamsters = experiment: Test Example 4: liver TG release inhibition test (Triton WR 1339); format: in vivo; details: Triton WR 1339, plasma TG release velocity over 2 h, fasted Syrian hamsters
Description: Liver TG Release Inhibition Test
Syrian hamsters (9 to 11 weeks of age) which were fasted for one day were used in the test. Blood was collected previously from orbital venous plexus, and a sample was forced to be administered orally to the hamsters at a dose of 30, 100 or 300 mg/2 mL/kg, and the same amount of vehicle was administered to the control group. Triton WR 1339 (2 mL/kg) was intravenously administered to the hamsters 30 minutes after the above administration. Two hours later, blood was collected from orbital venous plexus, and plasma was separated from the blood. The amount of TG in the plasma was determined by automatic analyzer (Hitachi Co.). The data was expressed in terms of TG release velocity (mg/dL/min)=(value at 2nd hour minus value before administration)/120. Inhibition rate (%) was calculated from the data obtained on the basis of the following equation.
Inhibition rate (%)=100×(1 minus TG release velocity of sample/TG release velocity of control group).

[1] = biological target: T1, Microsomal triglyceride transfer protein (MTP) from bovine liver (Bos taurus, UniProt P55156); experiment: Test Example 1: inhibition of interliposomal triglyceride (TG) transfer activity by MTP (also used for metabolites in Test Example 8); format: biochemical; details: MTP-mediated 14C-triolein transfer between liposomes, 37° C., one hour; read-out: Test Example 1 MTP inhibition IC50
T1 construct: from tissue; host or cells: bovine liver
T1 sequence (P55156 12-887): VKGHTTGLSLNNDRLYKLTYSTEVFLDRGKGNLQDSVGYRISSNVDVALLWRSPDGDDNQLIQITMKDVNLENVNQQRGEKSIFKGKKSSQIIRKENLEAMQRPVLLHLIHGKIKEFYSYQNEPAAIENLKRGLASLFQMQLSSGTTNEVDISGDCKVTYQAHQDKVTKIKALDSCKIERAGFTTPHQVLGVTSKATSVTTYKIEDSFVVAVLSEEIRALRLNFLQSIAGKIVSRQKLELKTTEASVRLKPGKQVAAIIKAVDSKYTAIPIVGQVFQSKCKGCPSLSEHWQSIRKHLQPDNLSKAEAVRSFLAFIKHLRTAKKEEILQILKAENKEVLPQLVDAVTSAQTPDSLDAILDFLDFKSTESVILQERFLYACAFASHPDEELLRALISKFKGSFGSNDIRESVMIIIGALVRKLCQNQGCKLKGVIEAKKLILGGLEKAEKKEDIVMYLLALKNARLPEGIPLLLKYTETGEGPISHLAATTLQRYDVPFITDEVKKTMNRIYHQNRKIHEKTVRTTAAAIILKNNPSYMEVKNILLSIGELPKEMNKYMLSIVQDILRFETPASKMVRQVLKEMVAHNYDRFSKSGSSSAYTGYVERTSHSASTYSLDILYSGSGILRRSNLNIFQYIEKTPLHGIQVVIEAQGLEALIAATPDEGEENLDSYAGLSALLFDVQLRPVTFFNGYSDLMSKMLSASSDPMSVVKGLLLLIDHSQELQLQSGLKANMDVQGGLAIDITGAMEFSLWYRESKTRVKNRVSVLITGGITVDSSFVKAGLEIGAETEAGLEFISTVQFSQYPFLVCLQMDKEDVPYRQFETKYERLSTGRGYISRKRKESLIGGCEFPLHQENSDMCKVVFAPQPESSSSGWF
T1 sequence (P05307 21-510 partner): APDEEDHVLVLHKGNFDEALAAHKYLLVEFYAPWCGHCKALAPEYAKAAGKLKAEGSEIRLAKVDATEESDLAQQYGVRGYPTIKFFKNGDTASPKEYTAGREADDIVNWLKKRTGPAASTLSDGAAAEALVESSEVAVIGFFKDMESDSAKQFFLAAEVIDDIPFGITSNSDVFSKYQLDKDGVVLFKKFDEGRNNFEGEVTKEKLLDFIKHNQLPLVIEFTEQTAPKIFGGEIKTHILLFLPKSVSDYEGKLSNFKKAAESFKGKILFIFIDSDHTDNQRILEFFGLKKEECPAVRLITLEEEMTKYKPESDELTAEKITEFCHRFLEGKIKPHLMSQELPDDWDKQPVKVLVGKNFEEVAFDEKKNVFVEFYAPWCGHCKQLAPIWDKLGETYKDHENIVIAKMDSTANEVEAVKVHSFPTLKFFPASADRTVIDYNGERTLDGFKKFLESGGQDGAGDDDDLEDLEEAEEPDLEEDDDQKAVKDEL
Method in brief: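 Partially purified bovine liver MTP (DEAE chromatography) incubated 1 h at 37 °C, pH 7.4, with ^14C-triolein-labelled donor SUVs and unlabelled acceptor SUVs plus compound in DMSO. Acceptor radioactivity, blank-corrected, gave % inhibition versus DMSO; IC50 derived. Metabolites tested likewise.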

`CCNC(=O)C(COC(=O)Cc1ccc(NC(=O)c2ccccc2-c2ccc(C(F)(F)F)cc2)cc1)(C(=O)NCC)c1ccccc1` [Example 1, 4-[(4′-Trifluoromethylbiphenyl-2-carbonyl)amino]phenyl-acetic acid 2,2-bisethylcarbamoyl-2-phenylethyl ester] was tested, and the “Inhibition of liver TG release in Hamster, Inhibition rate(%)” value (shortened to “Inhibition … Inhibition rate(%)”) (Syrian hamsters; 300 mg/kg p.o.) was 19(300) % and the IC50 [1] was 0.6 nM.
`CCOC(=O)C(COC(=O)Cc1ccc(OC(=O)c2ccccc2-c2ccc(C(F)(F)F)cc2)cc1)(C(=O)OCC)c1ccccc1` [Example 1-2, 2-Phenyl-2-{2-[4-(4′-trifluoromethylbiphenyl-2-carbonyloxy)phenyl]acetoxymethyl}malonic acid diethyl ester] was tested, and the IC50 [1] was 42 nM.
`CCNC(=O)C(COC(=O)Cc1ccc(NC(=O)c2ccccc2-c2ccc(C(F)(F)F)cc2)c(CC)c1)(C(=O)NCC)c1ccccc1` [Example 1-5, {3-Ethyl-4-[(4′-trifluoromethylbiphenyl-2-carbonyl)amino]phenyl}acetic acid 2,2-bisethylcarbamoyl-2-phenylethyl ester] was tested, and the IC50 [1] was 0.66 nM.
For `O=C(Cc1ccc(NC(=O)c2ccccc2-c2ccc(C(F)(F)F)cc2)cc1)OCC1(C(=O)NCC(F)(F)F)c2ccccc2-c2ccccc21` [Example 1-6], the “Inhibition … Inhibition rate(%)” value (Syrian hamsters; 100 mg/kg p.o.) was 0(100) % and the IC50 [1] was 1.2 nM.
`O=C(Cc1ccc(NC(=O)c2ccccc2-c2ccc(C(F)(F)F)cc2)cc1)OCC(C(=O)NCC(F)(F)F)(C(=O)NCC(F)(F)F)c1ccccc1` [Example 1-12] gave an IC50 [1] of 7.6 nM.
Compound `COC(=O)C(COC(=O)Cc1ccc(NC(=O)c2ccccc2-c2ccc(C(F)(F)F)cc2)cc1)(C(=O)OC)c1ccccc1` [Example 1-13] has an IC50 [1] of 5.8 nM.
For `CCCNC(=O)C(COC(=O)Cc1ccc(NC(=O)c2ccccc2-c2ccc(C(F)(F)F)cc2)cc1)(C(=O)NCCC)c1ccccc1` [Example 1-35], the “Inhibition … Inhibition rate(%)” value (Syrian hamsters; 300 mg/kg p.o.) was 9(300) % and the IC50 [1] was 1 nM.
`CCNC(=O)C(COC(=O)Cc1ccc(NC(=O)c2ccccc2-c2ccc(C(F)(F)F)cc2)c(C(=O)N(C)C)c1)(C(=O)NCC)c1ccccc1` [Example 2, {3-Dimethylcarbamoyl-4-[(4′-trifluoromethylbiphenyl-2-carbonyl)amino]phenyl}acetic acid 2,2-bisethylcarbamoyl-2-phenylethyl ester] was tested, and the IC50 [1] was 0.62 nM.
`CCCNC(=O)C(COC(=O)Cc1ccc(NC(=O)c2ccccc2-c2ccc(C(F)(F)F)cc2)c(C(=O)N(C)C)c1)(C(=O)NCCC)c1ccccc1` [Example 2-2] showed an IC50 [1] of 1.4 nM.
With `CCNC(=O)C(COC(=O)Cc1ccc(NC(=O)c2ccccc2-c2ccc(C(F)(F)F)cc2)c(C(=O)NC)c1)(C(=O)NCC)c1ccccc1` [Example 2-3] the IC50 [1] was 2.1 nM.
For `CCNC(=O)C(CCOC(=O)Cc1ccc(NC(=O)c2ccccc2-c2ccc(C(F)(F)F)cc2)c(C(=O)N(C)C)c1)(C(=O)NCC)c1ccccc1` [Example 2-4], the IC50 [1] was 0.94 nM.
With `CCOC(=O)C(COC(=O)Cc1ccc(NC(=O)c2ccccc2-c2ccc(C(F)(F)F)cc2)c(C(=O)N(C)C)c1)(C(=O)OCC)c1ccccc1` [Example 2-5] the “Inhibition … Inhibition rate(%)” value (Syrian hamsters; 100 mg/kg p.o.) was 0(100) % and the IC50 [1] was 1.4 nM.
In the case of `CCNC(=O)C(CCCOC(=O)Cc1ccc(NC(=O)c2ccccc2-c2ccc(C(F)(F)F)cc2)c(C(=O)N(C)C)c1)(C(=O)NCC)c1ccccc1` [Example 2-7], the IC50 [1] is reported as 1.1 nM.
In the case of `CCOC(=O)C(COC(=O)Cc1ccc(NC(=O)c2ccccc2-c2ccc(C(F)(F)F)cc2)c(C(=O)N2CCCC2)c1)(C(=O)OCC)c1ccccc1` [Example 2-22], the “Inhibition … Inhibition rate(%)” value (Syrian hamsters; 30 mg/kg p.o.) is reported as 0(30) % and the IC50 [1] is reported as 1.4 nM.
For `COC(=O)C(COC(=O)Cc1ccc(NC(=O)c2ccccc2-c2ccc(C(F)(F)F)cc2)c(C(=O)N(C)C)c1)(C(=O)OC)c1ccccc1` [Example 2-39], the “Inhibition … Inhibition rate(%)” value (Syrian hamsters; 100 mg/kg p.o.) was 6(100) % and the IC50 [1] was 0.74 nM.
For `CCNC(=O)C(COC(=O)Cc1ccc(NC(=O)c2ccccc2-c2ccc(C(F)(F)F)cc2)c(OC)c1)(C(=O)NCC)c1ccccc1` [Example 3-3], the “Inhibition … Inhibition rate(%)” value (Syrian hamsters; 100 mg/kg p.o.) was 18(100) % and the IC50 [1] was 0.4 nM.
With `CCNC(=O)C(CCOC(=O)Cc1ccc(NC(=O)c2ccccc2-c2ccc(C(F)(F)F)cc2)c(OC)c1)(C(=O)NCC)c1ccccc1` [Example 3-6] the IC50 [1] was 5 nM.
`CCNC(=O)C(CCOC(=O)Cc1ccc(NC(=O)c2ccccc2-c2ccc(C(F)(F)F)cc2)c(OCC)c1)(C(=O)NCC)c1ccccc1` [Example 3-8] was tested, and the IC50 [1] was 3.7 nM.
In the case of `CCNC(=O)C(COC(=O)Cc1ccc(NC(=O)c2ccccc2-c2ccc(C(F)(F)F)cc2)c(OC(C)C)c1)(C(=O)NCC)c1ccccc1` [Example 3-10], the IC50 [1] is reported as 2.7 nM.
